Experimental data as given in US20190388362A1, “PHARMACEUTICAL COMPOSITION FOR TREATING ORAL PRECANCER AND METHOD FOR PREDICTING OR DIAGNOSING ORAL PRECANCER OR ORAL CANCER” (MET Life Sciences Co., Ltd., priority 2017, published 2019).
Blank lines part the entries; values can stand above or below the molecule they belong to.

Assays:
[1] = biological target: recombinant GSK3β (Homo sapiens, UniProt P49841); assay: Surface plasma resonance (SPR) analysis on immobilized recombinant GSK3β; assay type: binding
recombinant GSK3β, sequence (P49841 whole entry): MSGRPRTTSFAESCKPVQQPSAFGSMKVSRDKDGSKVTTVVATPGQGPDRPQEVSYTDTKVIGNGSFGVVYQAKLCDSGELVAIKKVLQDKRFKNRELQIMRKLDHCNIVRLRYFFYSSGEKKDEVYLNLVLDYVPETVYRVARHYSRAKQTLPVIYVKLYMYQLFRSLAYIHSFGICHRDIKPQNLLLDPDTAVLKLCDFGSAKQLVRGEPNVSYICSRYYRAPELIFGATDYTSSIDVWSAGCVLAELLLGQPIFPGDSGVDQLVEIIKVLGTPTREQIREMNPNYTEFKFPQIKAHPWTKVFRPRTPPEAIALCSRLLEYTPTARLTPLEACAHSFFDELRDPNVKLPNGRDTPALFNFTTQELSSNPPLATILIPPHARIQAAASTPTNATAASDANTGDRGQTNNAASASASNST
Method: Surface plasma resonance (SPR) analysis was performed to confirm whether niclosamide directly binds to GSK3. SPR was conducted using the ProteOn™ XPR36 Protein Interaction Array system (Bio-Rad Laboratories, Inc., CA, USA), and purified recombinant GSK3β, was immobilized to a ProteOn GLH sensor chip. Niclosamide or 19-mer wild type Axin peptide or mutant peptide (VEPQKAAEEAIHRAEAVQR, mutation underlined) were diluted by phosphate-buffered saline+Tween 20+1% DMSO at different concentrations and then flowed over the chip at a rate of 100 μl/min. The results thereof were analyzed by ProteOn Manager Software 2.0 using the standard Langmuir models for fitting kinetic data. The rate of complex formation was represented by the association constant (ka, in the unit of M-1s-1), and the rate of complex decay was represented by the dissociation constant (kd, in the unit of s-1), as given by Equation 1 below.
A high-affinity interaction is represented by a low dissociation constant, and rapid recognition and binding with interactants (rapid “on rate,” or high ka) and the stability of complex formation (slow “off rate,” or low kd) are as shown in the following equation: KD=kd/ka.

[2] = biological target: T1, Axin-GSK3 complex (Homo sapiens, UniProt P49841); assay: Immunoprecipitation of His-tagged Axin2 from MCF-7 cell lysate, immunoblot for GSK3; assay type: binding; settings: MCF-7 cells with His-tagged Axin2, Triton X-100 lysate, Ni-Ti beads
T1 construct: expressed in transfected cells; host or cells: MCF-7 (Axin2 transfected, doxycycline-induced; GSK3 endogenous)
T1 sequence (P49841 whole entry, one chain of several): as the sequence (P49841 whole entry) above
Method: To confirm whether niclosamide is capable of inhibiting Axin-GSK3 interaction, cell lysates with full-length Axin2 were examined to perform immunoprecipitation experiments in the presence or absence of niclosamide.
An immunoprecipitation assay was performed as follows (Yook J I, et al. Nat Cell Biol. 8:1398-1406, 2006).
A doxycycline-induced His-tagged Axin2 expression vector was transfected into MCF-7 cells (ATCC, American Type Culture collection) and cultured, and a Triton X-100 lysate of whole cells was treated with Ni—Ti beads (Invitrogen) and niclosamide at each concentration to allow a reaction to occur therebetween. Proteins recovered in the beads were subjected to SDS-PAGE, followed by immunoblot analysis for GSK3, and a 1/20 volume of a control was added thereto.

[3] = test system: oral precancer cell line D38; assay: Migration assay (crystal violet), D38; assay type: cell-based; settings: niclosamide-concentration-dependent
Method: (§1) Cell migration is regulated by Axin2 and Snail. In the present example, the YD-10B cell line, the KB cell line, and the oral precancer cell line D38 were treated with niclosamide, a migration assay was performed thereon, and then the cells were stained with crystal violet and cell migration values were measured.

[4] = test system: oral cancer cells YD10B; assay: 3D culture model, YD10B; assay type: cell-based; settings: YD10B three-dimensionally cultured, 0.125 μM niclosamide
[5] = test system: oral precancer cell line D38; assay: Soft agar colony formation assay, D38; assay type: cell-based; settings: 3 weeks, according to niclosamide treatment concentration
Method: (§2) The oral precancer cell line D38 and the oral cancer cell line YD10B were cultured on soft agar plates containing various concentrations of niclosamide. The corresponding concentration of niclosamide was administered while the respective cells were cultured on the soft agar plates for 3 weeks.

[6] = biological target: T2, recombinant GSK3 beta / Axin peptide interaction (Homo sapiens, UniProt P49841); assay: Competitive inhibition of recombinant GSK3 binding to FITC-conjugated 19-mer Axin peptide (bead fluorescence); settings: in proportionate to the concentration of niclosamide added; 2 hours
T2 construct: made in house; host or cells: Sf9 insect cells (GSK3 beta); peptide chemically synthesized (Peptron)
T2 sequence (P49841 whole entry): as above
From the text: In the previously reported results of analyzing the structure of Axin-GSK3 binding, accumulation of the hydrophobic residues of Axin α-helix into a hydrophobic groove formed by the C-terminal loop of GSK3 is disclosed (Dajani R et al., EMBO J. 22:494-501, 2003), and thus the inventors of the present invention hypothesized that niclosamide would bind to the hydrophobic groove of GSK3 and interfere with the function of Axin. To verify this, in vitro analysis was designed to identify competitive inhibition of recombinant GSK3 binding to 19-mer FITC-conjugated Axin peptides by niclosamide.
Hig-tagged recombinant GSK3 beta was obtained from sf9 insect cells using a known method (Lee D G, et al. Nat Commun. 5:4423, 2014). The FITC-conjugated 19-mer Axin peptide (Axin1, 383-401, VEPQKFAEELIHRLEAVQR), which is known to bind to GSK3 as an amphipathic α-helix, was chemically synthesized (Peptron). To confirm competitive binding between the synthesized Axin peptide and niclosamide, His-tagged recombinant GSK3 and Ni—Ti beads were treated with niclosamide for 2 hours, and then washed three times with PBS, and quantitative fluorescence measurement was performed using Ni—Ti beads. Fluorescence intensity was represented in proportionate to the fluorescence intensity of a negative control from the 3rd experiment.

[7] = test system: oral precancer cell line D38; assay: Trypan exclusion assay for apoptosis; assay type: cell-based; settings: D38, 72 hours, concentration-dependent
Method: The oral precancer cell line D38 was treated with various concentrations of niclosamide for 72 hours and apoptosis was confirmed through a trypan exclusion assay.

[8] = test system: KB cell line; assay: Migration assay (crystal violet), KB; assay type: cell-based; settings: niclosamide-concentration-dependent
Method: as §1

[9] = test system: oral cancer cell line YD-10B; assay: Cell growth by counting cells in real time, YD-10B; assay type: cell-based; settings: as the concentration of niclosamide was increased
Method: (§3) The oral cancer cell lines YD-10B and KB and the oral precancer cell line D38 were treated with various concentrations of niclosamide, and cell growth was measured by counting cells in real time.

[10] = test system: YD-10B cell line; assay: Migration assay (crystal violet), YD-10B; assay type: cell-based; settings: niclosamide-concentration-dependent
Method: as §1

[11] = test system: oral cancer cells YD10B; assay: YD10B oral cancer cell transplant in immunodeficient mice; assay type: in vivo; settings: 200 mg/kg (mpk), orally, daily; Balb/c athymic nude mice with YD10B cells
From the text: To confirm the effect of niclosamide on the inhibition of oral cancer in an animal model, oral cancer cells YD10B (3×10^6 cells) were transplanted to immunodeficient mice (Balb/c, athymic nude mice, NaraBiotech), the mice were divided into two groups, and then niclosamide was orally administered to the two groups daily.

[12] = test system: Snail; assay: Western blotting of Snail in oral cancer and oral precancer cell lines; assay type: cell-based; settings: YD-10B, KB and D38 cell lines, 16 hours
From the text: (§4) The expression of Axin2 and Snail was confirmed in a cell lysate after treating YD-10B (CVCL-8929) and KB (CVC_L 0372), which are oral cancer cell lines, and D38, which is an oral precancer cell line (McGregor F. et al., CANCER RESEARCH 62, 4757-4766, 2002), with various concentrations of niclosamide by using the same method of Example 5.
(§5) For the YD-10B and KB cell lines, a RPMI1640 medium containing 10% FBS and 1% penicillin/streptomycin was used. For the oral precancer cell line D38, a DMEM: F12 (3:1) medium containing 10% FBS and 1% penicillin/streptomycin was used. The respective cells were treated with niclosamide at the indicated concentration for 16 hours and the expression of Axin2 and Snail was analyzed through western blotting.

[13] = test system: oral cancer cell line KB; assay: Cell growth by counting cells in real time, KB; assay type: cell-based; settings: as the concentration of niclosamide was increased
Method: as §3

[14] = test system: Axin2; assay: Axin2 expression in colorectal cancer cell lines treated with niclosamide; assay type: cell-based; settings: HCT116, SW480, SW620 and DLD-1 cells; niclosamide at an nM level
[15] = test system: oral cancer cell line YD10B; assay: Soft agar colony formation assay, YD10B; assay type: cell-based; settings: 3 weeks, according to niclosamide treatment concentration
Method: as §2

[16] = test system: Snail; assay: Snail expression in colorectal cancer cell lines treated with niclosamide; assay type: cell-based; settings: HCT116, SW480, SW620 and DLD-1 cells; niclosamide at an nM level
[17] = test system: oral precancer cell line D38; assay: Cell growth by counting cells in real time, D38; assay type: cell-based; settings: as the concentration of niclosamide was increased
Method: as §3

[18] = test system: Axin2; assay: Western blotting of Axin2 in oral cancer and oral precancer cell lines; assay type: cell-based; settings: YD-10B, KB and D38 cell lines, 16 hours
From the text: as §4, §5

[19] = test system: oral precancer cell line D38; assay: 3D culture model on collagen sheet, D38; assay type: cell-based; settings: 0.125 μM niclosamide
Method: To confirm the niclosamide treatment effect in a 3D culture model, the results of treatment with 0.125 μM niclosamide when the oral precancer cell line D38 was cultured on a collagen sheet are illustrated in FIG. 17, in part A thereof.

[20] = test system: Axin2; assay: Axin2 expression in cell lysate of colorectal cancer cells treated with HCA and BCA; assay type: cell-based; settings: at an nM level
From the text: (§6) According to the previous research results, it has been known that 2′-Hydroxycinnamaldehyde (HCA), which is a main component of cinnamon, and a derivative thereof, i.e., 2′-benzoyloxycinnamaldehyde (BCA) inhibit cancer metastasis through Snail expression inhibition by inhibiting LRP-1 receptors (Hwang H et al., J Neuroimmunol 2011, 230, 52-64; Ismail I A, et al., Breast Cancer Res Treat, 137, 697-708, 2013). Thus, to confirm whether HCA and BCA are capable of inhibiting Axin2 expression and Snail expression, colorectal cancer cells were treated with HCA and BCA, and it was examined whether Axin2 and Snail were expressed in a cell lysate. As HCA and BCA, those separated from cinnamon bark and purified were used (Hwang H et al., J Neuroimmunol 2011, 230, 52-64). As a result, as illustrated in FIGS. 11A and 11B, it was confirmed that HCA and BCA inhibited the expression of Axin2 and Snail at an nM level.

[21] = test system: Snail; assay: Snail expression in cell lysate of colorectal cancer cells treated with HCA and BCA; assay type: cell-based; settings: at an nM level
From the text: as §6

direct binding to GSK3 [1]: directly bound
Molecule: CC[C@H](C)[C@H](NC(=O)[C@H](CC(C)C)NC(=O)[C@H](CCC(=O)O)NC(=O)[C@H](CCC(=O)O)NC(=O)[C@H](C)NC(=O)[C@H](Cc1ccccc1)NC(=O)[C@H](CCCCN)NC(=O)[C@H](CCC(N)=O)NC(=O)[C@@H]1CCCN1C(=O)[C@H](CCC(=O)O)NC(=O)[C@@H](N)C(C)C)C(=O)N[C@@H](Cc1c[nH]cn1)C(=O)N[C@@H](CCCNC(=N)N)C(=O)N[C@@H](CC(C)C)C(=O)N[C@@H](CCC(=O)O)C(=O)N[C@@H](C)C(=O)N[C@H](C(=O)N[C@@H](CCC(N)=O)C(=O)N[C@@H](CCCNC(=N)N)C(=O)O)C(C)C [wild type Axin peptide]

binding to GSK3 protein immobilized on a sensor surface ([1]; up to 100 μM): unable to bind
Molecule: Mutant Axin peptide: mutant 19-mer Axin peptide VEPQKAAEEAIHRAEAVQR, mutations on hydrophobic residues

GSK3 that binds to Axin2 in a total cell lysate [2]: reduced
direct binding to GSK3 [1]: directly bound
Kd ([1]; GSK3β immobilized on sensor chip, read-out: equilibrium dissociation constant KD): 34 µM
interaction between the recombinant GSK3 and the synthesized Axin peptide [6]: inhibited
Molecule: O=C(Nc1ccc([N+](=O)[O-])cc1Cl)c1cc(Cl)ccc1O [niclosamide]
cell migration [3]: inhibited
invasiveness of cancer cells [4]: rapidly reduced
colony formation [5]: inhibited
apoptosis [7]: occurred
cell migration [8]: inhibited
cell growth [9]: inhibited
cell migration [10]: inhibited
volume of tumors [11]: reduced
expression of Snail [12]: inhibited
cell growth [13]: inhibited
Axin2 expression [14]: decreased
colony formation [15]: inhibited
Snail expression [16]: decreased
cell growth [17]: inhibited
expression of Axin2 [18]: inhibited
cell density [19]: reduced
keratinocytic differentiation [19]: induced
basal membrane ([19]; destroyed in control): smooth basal membrane was observed

Further lines, the molecule ahead of its results:

Molecule: O=CC=Cc1ccccc1O [HCA, 2′-Hydroxycinnamaldehyde]
expression of Axin2 [20]: inhibited
expression of Snail [21]: inhibited

Molecule: O=CC=Cc1ccccc1OC(=O)c1ccccc1 [BCA, 2′-benzoyloxycinnamaldehyde]
expression of Axin2 [20]: inhibited
expression of Snail [21]: inhibited
